Results reported in publication PMC11637191, “The pH-dependence of efflux ratios determined with bidirectional transport assays across cellular monolayers” (International Journal of Pharmaceutics: X, 2024).
Values joined by “and” are separate entries in the source; they are usually repeats but may differ in a detail not shown here. Equal entries are not always repeated. Where two headings read alike, the source gives them in different places.

Columns and labels:
[1] = system: MDCK-MDR1 cells; settings: MDCK-MDR1, pH 7.4
[2] = system: MDCK-MDR1 cells; settings: cited from earlier work
[3] = Measurement of paracellular transport (Ppara) in MDCK-MDR1 cells with and without P-gp inhibitors; format: in vitro ADME, canine; settings: dog, + 2 µM elacridar
From the text: In initial fits, we used experimentally obtained values for Ppara , determined by measuring the Papp of the relevant compound at a pH value where paracellular transport was expected to dominate. Since the compounds in this study are P-gp substrates, elacridar was also used to inhibit P-gp. Under these conditions, the measured Papp is expected to be a measure of Ppara . […]
(§1) X Measurement of paracellular transport […]
(§2) assess its relative contribution to overall flux, it is necessary to quantify paracellular transport in some way. An approximation of paracellular transport can be mathematically calculated as desc ribed in […]
(§3) and cell type can influence and complicate the predictions, leading to uncertainties. H owever, it can also be experimentally measured provided that it can be assured that the P app would be dominated by the contribution of P para . […]
compounds. In order to ensure paracellular dominance, 2 µM elacridar was used to inhibit potential P-gp facilitated efflux, and the transport buffer was set to a pH that would severely restrict the neutral […]
Table S13: P app values and measured logP para for basic and acidic marker compounds. P app values are the mean of three timepoints per replicate, for a total of three replicates (n = 3) ± standard […]
Compound pH Papp, A⟶B logP para Recovery fn
In light of the uncertainties in predicting P para , it was presumed more apt to measure P para for each compound individually in parallel with the pH dependence experiments. As described in Section 4.3 of the main text, experiments were initially performed for each tested compound with inhibitor and appropriate pH values (similar to those performed for Table S12) in an attempt to ensure the dominance of paracellular transport. These values could then be used as a direct measure for P para for each compound that could be fed to the model for its individual fit. […]
affecting P para and/or the measurement of it, we measured the P app of more commonly-used markers for paracellular transport with and without inhibitor. The transport of these rather hydrophilic compounds is known to be dominated by the paracellular route. Furthermore, for our MDCK- MDR1 […]
efflux is not expected to play a role. As such, the addition of inhibitor in this case is purely to evaluate if the P app changes when it is present.

[4] = determined 25 °C; etoposide acidic, acebutolol basic; ref Avdeef, 2012; cited from earlier work
[5] = in vitro; settings: dog
[6] = system: P-gp (MDR1); assay: in vitro; settings: dog
[7] = Calculation of neutral fraction (fn)
[8] = system: MDCK-MDR1 cells; assay: Comparison of Papp,B-A with and without inhibitor in MDCK-MDR1 cells (own and literature data)
[9] = system: P-gp (MDR1); assay: as above; settings: dog, This study
[10] = system: Caco-2 cells; assay: Model fits of pH-gradient Caco-2 data of Neuhoff et al. (2003)
From the text: Error bars represent standard deviation.
Fit Parameters A: Neutral-Neutral B: Ionic-Ionic C: Neutral-Ionic […]
as §1, §2, §3
compounds. In order to ensure paracellular dominance, 2 µM elacridar was used to inhibit potential P-gp facilitated efflux, and the transport buffer was set to a pH that would severely restrict the neutral

[11] = system: MDCK-II-MDR1 cells
[12] = system: MDCK-II-MDR1 cells; settings: intrinsic membrane permeability, calculated from Papp, A⟶B with elacridar
Method: Briefly, cells (passage 20–40) were seeded onto 12-well PET inserts (CellQART, Northeim, Germany; pore size: 0.4 μm; filter thickness: 11.5 μm, 100×10^6 pores/cm^2) at a density of 1.5×10^5 cells/insert. […] One day before the experiments, the cell medium was refreshed. For P0 determination, inserts were pre-incubated with the P-gp inhibitor elacridar (2 μM) for 30 min in HBSS pH 7.4. The transport rates in both directions of the test compounds were determined in duplicate or triplicate for 4–5 different pH values between pH 5 and pH 9. The transport buffer was HBSS buffered with 10 mM MES for pH 5 and 6, 25 mM HEPES for pH 7, 7.4 and 8, and 10 mM TAPS for pH 9. Stock solutions were prepared in the transport buffer and pre-warmed to 37 °C. Additional stock solutions with 2 μM elacridar were prepared at suitable pH values to measure P0 values in tandem. The pH of all buffer and stock solutions, as well as the pH of all samples after experiment completion, was controlled with a rapid pH automated pH meter (Hudson Robotics, Inc., Springfield, NJ, USA). Inserts were used in 12-well plates (TPP Techno Plastic Products AG, Trasadingen, Switzerland). […] Timestep length was determined individually for each compound and direction measured to ensure sink conditions. […]
to ensure that measured transport rates would not be affected by active efflux .

[13] = with inhibitor, pH 7.4 iso-method, ref Troutman and Thakker (2003)
[14] = without inhibitor, pH 7.4 iso-method, ref Troutman and Thakker (2003)
[15] = calculated from literature Papp,B⟶A and Papp with inhibitor, pH 7.4 iso-method
[16] = Neutral-Neutral assumption, gradient pH method, basolateral pH 7.4, fit of Neuhoff et al. 2003 data
[17] = with inhibitor, pH 7.4 iso-method, ref Wang et al. (2005)
[18] = without inhibitor, pH 7.4 iso-method, ref Wang et al. (2005)

CC(C)N(CCC(c1ccccc1)c1cc(CO)ccc1O)C(C)C (centres unmarked) [5-Hydroxymethyl Tolterodine]
Factor difference [1]: 6 | Papp, B⟶A ([2]; MDCK-MDR1, pH 7.4): 6.3e-05 cm/s | Papp, inhibitor ([2]; MDCK-MDR1, pH 7.4): 1.1e-05 cm/s

CCCC(=O)Nc1ccc(OCC(O)CNC(C)C)c(C(C)=O)c1 (centres unmarked) [Acebutolol]
recovery ([3]; MDCK-MDR1, pH 5, with elacridar 2 µM, pH 5, n = 3 (Table S13)): 100% | Papp ([3]; MDCK-MDR1, with elacridar 2 µM, pH 5, three replicates (n = 3) (Table S13)): 0.6 ± 0.2 ×10⁻⁶ cm/s | pKa [4]: 9.18 | recovery ([5]; MDCK-MDR1, pH 5): 90 to 106% | recovery ([5]; MDCK-MDR1, pH 6): 88 to 120% | recovery ([5]; MDCK-MDR1, pH 7): 88 to 102% | recovery ([5]; MDCK-MDR1, pH 8): 78 to 83% | recovery ([5]; MDCK-MDR1, pH 9): 72 to 79% | Papp ([6]; MDCK-MDR1, pH 5): 0.31 ± 0.11 ×10⁻⁶ cm/s | Papp B→A ([6]; MDCK-MDR1, pH 5): 0.28 ± 0.05 ×10⁻⁶ cm/s | Papp ([6]; MDCK-MDR1, pH 6): 0.1 ± 0.02 ×10⁻⁶ cm/s | Papp B→A ([6]; MDCK-MDR1, pH 6): 0.47 ± 0.07 ×10⁻⁶ cm/s | Papp ([6]; MDCK-MDR1, pH 7): 0.18 ± 0.02 ×10⁻⁶ cm/s | Papp B→A ([6]; MDCK-MDR1, pH 7): 2.92 ± 1.12 ×10⁻⁶ cm/s | Papp ([6]; MDCK-MDR1, pH 8): 0.61 ± 0.28 ×10⁻⁶ cm/s | Papp B→A ([6]; MDCK-MDR1, pH 8): 16.7 ± 2.4 ×10⁻⁶ cm/s | Papp ([6]; MDCK-MDR1, pH 9): 7.41 ± 3.04 ×10⁻⁶ cm/s | Papp B→A ([6]; MDCK-MDR1, pH 9): 38.5 ± 8.5 ×10⁻⁶ cm/s | Papp, inhibitor [2, 13]: 3.73e-06 cm/s | Papp, B⟶A [2, 14]: 1.72e-05 cm/s | fn ([7]; neutral fraction at pH 5): 0.0% | fn ([7]; neutral fraction at pH 8): 6% | Factor difference ([8]; This study, Papp,B⟶A vs Papp with inhibitor, varying pH with the iso-method): 3 and 5 | Papp, inhibitor ([8]; This study, with inhibitor, varying pH with the iso-method): 3.16 ×10⁻⁶ cm/s | Papp, B⟶A ([8]; This study, without inhibitor, varying pH with the iso-method): 16.7 ×10⁻⁶ cm/s | Factor difference [8, 15]: 5 | Papp ([9]; MDCK-MDR1, Papp, B⟶A, without inhibitor, varying pH with the iso-method): 16.7 ×10⁻⁶ cm/s | Papp ([9]; MDCK-MDR1, pH 8, with P-gp inhibitor (elacridar 2 µM in this study's P0 assays), Papp, inhibitor, with inhibitor, varying pH with the iso-method): 5.03 ×10⁻⁶ cm/s

C[C@H]1O[C@@H](O[C@H]2[C@@H](O)C[C@H](O[C@H]3[C@@H](O)C[C@H](O[C@H]4CC[C@@]5(C)[C@H](CC[C@@H]6[C@@H]5C[C@@H](O)[C@]5(C)[C@@H](C7=CC(=O)OC7)CC[C@]65O)C4)O[C@@H]3C)O[C@@H]2C)C[C@H](O)[C@@H]1O [Digoxin]
Pb,app active (fitted) [10, 16]: 51.6 ×10⁻⁶ cm/s | Ppara (fitted) [10, 16]: 5.22 ×10⁻⁶ cm/s | P0 ([10]; human, Caco-2): 2.69-06 cm/s | Ppgp,app active (fitted) ([10]; human, Caco-2, pH 7.4): 63.9 ×10⁻⁶ cm/s | Pb active in Caco-2 fit compared with MDCK results (iso-pH method) ([10]; neutral-neutral fit): one order of magnitude higher | logPapp, A⟶B ([11]; pH 5, iso-pH method): -6.27 P in cm/s | logPapp, B⟶A ([11]; pH 5, iso-pH method): -5.21 P in cm/s | logPapp, A⟶B ([11]; pH 6, iso-pH method): -6.29 P in cm/s | logPapp, B⟶A ([11]; pH 6, iso-pH method): -4.79 P in cm/s | logPapp, A⟶B ([11]; pH 7.4, iso-pH method): -6.23 P in cm/s | logPapp, B⟶A ([11]; pH 7.4, iso-pH method): -4.75 P in cm/s | logPapp, A⟶B ([11]; pH 8, iso-pH method): -6.14 P in cm/s | logPapp, B⟶A ([11]; pH 8, iso-pH method): -4.79 P in cm/s | logPapp, A⟶B ([11]; pH 9, iso-pH method): -5.72 P in cm/s | logPapp, B⟶A ([11]; pH 9, iso-pH method): -5.12 P in cm/s | recovery ([5]; MDCK-MDR1, pH 5): 71 to 116% | recovery ([5]; MDCK-MDR1, pH 6): 74 to 88% | recovery ([5]; MDCK-MDR1, pH 7.4): 73 to 83% | recovery ([5]; MDCK-MDR1, pH 8): 73 to 76% | recovery ([5]; MDCK-MDR1, pH 9): 75 to 82% | Papp ([6]; MDCK-MDR1, pH 5): 0.53 ± 0.15 ×10⁻⁶ cm/s | Papp B→A ([6]; MDCK-MDR1, pH 5): 6.12 ± 1.9 ×10⁻⁶ cm/s | Papp ([6]; MDCK-MDR1, pH 6): 0.51 ± 0.12 ×10⁻⁶ cm/s | Papp B→A ([6]; MDCK-MDR1, pH 6): 16.3 ± 0.8 ×10⁻⁶ cm/s | Papp ([6]; MDCK-MDR1, pH 7.4): 0.59 ± 0.11 ×10⁻⁶ cm/s | Papp B→A ([6]; MDCK-MDR1, pH 7.4): 17.8 ± 2.8 ×10⁻⁶ cm/s | Papp ([6]; MDCK-MDR1, pH 8): 0.72 ± 0.13 ×10⁻⁶ cm/s | Papp B→A ([6]; MDCK-MDR1, pH 8): 16.3 ± 2 ×10⁻⁶ cm/s | Papp ([6]; MDCK-MDR1, pH 9): 1.9 ± 0.32 ×10⁻⁶ cm/s | Papp B→A ([6]; MDCK-MDR1, pH 9): 7.63 ± 1.73 ×10⁻⁶ cm/s | Papp, inhibitor ([2]; with inhibitor, pH 7.4 iso-method, ref Chang et al. (2006)): 2.04e-06 cm/s | Papp, inhibitor ([2]; with inhibitor, pH 7.4 iso-method, ref Taub et al. (2005)): 1.39e-06 cm/s | Papp, inhibitor [2, 13]: 7.5e-06 cm/s | Papp, inhibitor [2, 17]: 1e-06 cm/s | Papp, B⟶A ([2]; without inhibitor, pH 7.4 iso-method, ref Chang et al. (2006)): 1.52e-05 cm/s | Papp, B⟶A ([2]; without inhibitor, pH 7.4 iso-method, ref Taub et al. (2005)): 8.15e-06 cm/s | Papp, B⟶A [2, 14]: 3.57e-05 cm/s | Papp, B⟶A [2, 18]: 9.75e-06 cm/s | fn ([7]; neutral fraction at pH 7.4): 100% | Factor difference ([8]; This study, Papp,B⟶A vs Papp with inhibitor, pH 7.4 iso-method): 7 | Factor difference [8, 15]: 10 and 6 and 5 and 7 | Papp ([9]; MDCK-MDR1, pH 7.4, with P-gp inhibitor (elacridar 2 µM in this study's P0 assays), Papp, inhibitor, with inhibitor, pH 7.4 iso-method): 2.53 ×10⁻⁶ cm/s

COc1cc([C@@H]2c3cc4c(cc3[C@@H](O[C@@H]3O[C@@H]5CO[C@@H](C)O[C@H]5[C@H](O)[C@H]3O)[C@H]3COC(=O)[C@H]23)OCO4)cc(OC)c1O [Etoposide]
logPapp, A⟶B ([11]; pH 6, iso-pH method): -6.93 P in cm/s | logPapp, B⟶A ([11]; pH 6, iso-pH method): -5.50 P in cm/s | logPapp, A⟶B ([11]; pH 7.4, iso-pH method): -6.97 P in cm/s | logPapp, B⟶A ([11]; pH 7.4, iso-pH method): -5.39 P in cm/s | logPapp, A⟶B ([11]; pH 8, iso-pH method): -6.86 P in cm/s | logPapp, B⟶A ([11]; pH 8, iso-pH method): -5.55 P in cm/s | logPapp, A⟶B ([11]; pH 9, iso-pH method): -6.71 P in cm/s | logPapp, B⟶A ([11]; pH 9, iso-pH method): -6.37 P in cm/s | LogP0 [12]: -6.3 P in cm/s | pKa [4]: 8.53 | recovery ([5]; MDCK-MDR1, pH 6): 92 to 97% | recovery ([5]; MDCK-MDR1, pH 7.4): 98 to 108% | recovery ([5]; MDCK-MDR1, pH 8): 83 to 98% | recovery ([5]; MDCK-MDR1, pH 9): 60 to 71% | Papp ([6]; MDCK-MDR1, pH 6): 0.12 ± 0.02 ×10⁻⁶ cm/s | Papp B→A ([6]; MDCK-MDR1, pH 6): 3.16 ± 0.19 ×10⁻⁶ cm/s | efflux ratio ([6]; MDCK-MDR1, pH 6): 26.8 | Papp ([6]; MDCK-MDR1, pH 7.4): 0.11 ± 0.02 ×10⁻⁶ cm/s | Papp B→A ([6]; MDCK-MDR1, pH 7.4): 4.05 ± 1.18 ×10⁻⁶ cm/s | efflux ratio ([6]; MDCK-MDR1, pH 7.4): 37.6 | Papp ([6]; MDCK-MDR1, pH 8): 0.14 ± 0.04 ×10⁻⁶ cm/s | Papp B→A ([6]; MDCK-MDR1, pH 8): 2.8 ± 0.08 ×10⁻⁶ cm/s | efflux ratio ([6]; MDCK-MDR1, pH 8): 20.2 | Papp ([6]; MDCK-MDR1, pH 9): 0.19 ± 0.08 ×10⁻⁶ cm/s | Papp B→A ([6]; MDCK-MDR1, pH 9): 0.43 ± 0.03 ×10⁻⁶ cm/s | efflux ratio ([6]; MDCK-MDR1, pH 9): 2.2 | Papp, inhibitor [2, 13]: 6.6e-07 cm/s | Papp, inhibitor [2, 17]: 3e-07 cm/s | Papp, B⟶A [2, 14]: 1.04e-05 cm/s | Papp, B⟶A [2, 18]: 1.8e-06 cm/s | fn ([7]; neutral fraction at pH 7.4): 84%

CC[C@@H](CO)NC(=O)[C@@H]1C=C2c3cccc4c3c(cn4C)C[C@H]2N(C)C1 [Methysergide]
Factor difference ([1]; dog): 2 | Papp, B⟶A ([2]; MDCK-MDR1, pH 7.4): 75.3 | Papp, inhibitor ([2]; MDCK-MDR1, pH 7.4): 39.4
